{
  "source": "patent US7767682B2",
  "about": "“Medicaments” (GlaxoSmithKline LLC, priority 2005, dated 2010)",
  "key": {"MDCK-C7 cells [1]": {"system": "MDCK-C7 cells", "assay": "Short-circuit current (SCC) ion transport response to ADH in MDCK-C7 monolayers in Ussing chambers", "assay_type": "cell-based, canine", "settings": "for initial rapid transient SCC response to ADH: 18 hrs pre-incubation before ADH", "method": "The Madin-Darby canine kidney (MDCK) cell line expresses many characteristics of the renal collecting duct. The MDCK-C7 subclone forms a high-resistance, hormone-responsive model of the principal cells, which are found in distal sections of the renal tubule. The electrophysiological technique of short-circuit current measurement has been used to examine the response to antidiuretic hormone (ADH) in the MDCK-C7 clone.\nThe MDCK-C7cells were grown in a 37° C. humidified incubator with a 5% CO2 and […] gas mixture. Initially the cells were grown in 75 cm^2 flasks and fed with Minimal Media with Earle's salts, non-essential amino acids and L-glutamine (MEM; Gibco/BRL, Grand Island, N.Y., USA) supplemented with 10% fetal bovine serum (Sigma), 26 mM NaHCO3 and adjusted to pH 7.0. The confluent cells were subcultured by trypsinization and the cells were seeded (5.4×10^4 cell/cm^2) onto Nucleopore polycarbonate membranes forming the bottom of Transwell chambers (Costar, Cambridge, Mass., USA). The Transwell chambers were placed in specially designed tissue culture plates to form a two compartment system in which media are added to both apical and basolateral surfaces. The media were aspirated and replaced three times per week. The cells were used between passages 73 and 96.\nNucleopore filters (4.7 cm^2) containing confluent MDCK-C7 cells (10-16 days) were removed from the Transwell chambers and clamped between the halves of an Ussing chamber (World Precision Instruments, Sarasota, Fla.). Each half of the chamber contained a tapered fluid compartment with openings for voltage electrodes (close to the epithelial membrane) and current electrodes (at the opposite end of the chamber). The fluid chamber was water jacketed to maintain constant temperature (37° C.). The cells were bathed in serum-free MEM. The media were circulated in the chambers by means of a 5%CO2/O2 gas lift. […] Transepithelial resistance was calculated by applying a 2-mV pulse across the epithelium and measuring the resultant deflection in SCC. Data from cultures were used only if they maintained a resistance >1000 W cm^2. Transepithelial resistance (an indication of cellular viability) was monitored throughout the entire duration of each electrophysiological experiment by pulsing the tissues with a 2000 μV pulse every 200 seconds. Resistance values were calculated from the resulting current deflections using Ohm's law.\nThe cultures were placed in the Ussing chambers and incubated under short-circuited conditions until a steady baseline transport was achieved (0.5-1 h). In the experiments to characterize the ADH-induced ion transport phenomena, the cultures were pre-incubated with the inhibitors 30 minutes prior to the addition of ADH. In the experiments with GI262570X, compound was added 18 hrs. prior to the addition of ADH. ADH was added to the serosal bathing media; amiloride was added to the apical media 30 min after ADH to determine the portion of the transport due to flux through the amiloride-sensitive Na^+ channel. The concentrations of effectors used were: ADH, 0.1 IU/ml; amiloride, 30 μM; NPPB, 500 μM; verapamil, 25 μM, and GI262570X (concentration range from 1 nM -1 μM). Each experiment was performed using matched cultures grown in parallel. The data are presented as means±SE with n indicating the number of different experiments."}, "MDCK-C7 cells [2]": {"system": "MDCK-C7 cells", "assay": "Transepithelial resistance of MDCK-C7 monolayers (indication of cellular viability)", "assay_type": "cell-based, canine", "settings": "at concentrations >10 μM; SCC response not measurable", "method": "Nucleopore filters (4.7 cm^2) containing confluent MDCK-C7 cells (10-16 days) were removed from the Transwell chambers and clamped between the halves of an Ussing chamber (World Precision Instruments, Sarasota, Fla.). Each half of the chamber contained a tapered fluid compartment with openings for voltage electrodes (close to the epithelial membrane) and current electrodes (at the opposite end of the chamber). The fluid chamber was water jacketed to maintain constant temperature (37° C.). The cells were bathed in serum-free MEM. The media were circulated in the chambers by means of a 5%CO2/O2 gas lift. The electrodes were connected to a voltage-clamp amplifier (Current Voltage Clamp; World Precision Instruments) for measurement of net ion flux as monitored under short-circuit conditions (SCC; short circuit current) [Ussing, 1951]. Transepithelial resistance was calculated by applying a 2-mV pulse across the epithelium and measuring the resultant deflection in SCC. Data from cultures were used only if they maintained a resistance >1000 W cm^2. Transepithelial resistance (an indication of cellular viability) was monitored throughout the entire duration of each electrophysiological experiment by pulsing the tissues with a 2000 μV pulse every 200 seconds. Resistance values were calculated from the resulting current deflections using Ohm's law."}},
  "note": "Entries after “also recorded” stand apart in the source; their conditions may differ. Counter-ions that a name gives are not always drawn. Bridge positions count the residues as written; N and C are the ends. Ends that are not written are not given here.",
  "data": [
    {"molecule": "[arg]-vasopressin (CYFQNCPRG-NH2; disulfide 1-6; UniProt P01185 20-28, looked up) [ADH, antidiuretic hormone used to stimulate ion transport, reference compound]", "values": [
      {"measurement": "short circuit current response on stimulation", "setting": "MDCK-C7 cells [1]; 100 mU/ml, serosal bathing media, multiphasic response", "result": "rapid increase in short circuit current"}
    ]},
    {"molecule": "Cc1oc(-c2ccccc2)nc1CCOc1ccc(C[C@H](Nc2ccccc2C(=O)c2ccccc2)C(=O)O)cc1", "note": "[GI262570X, N-(2-benzoylphenyl)-O-[2-(5-methyl-2-phenyl-4-oxazolyl)ethyl]-L -tyrosine]", "values": [
      {"measurement": "effects on the other phases of the SCC response to ADH", "setting": "MDCK-C7 cells [1]; 100 nM or 1 μM, 18 hrs pre-incubation", "result": "no significant effects"},
      {"measurement": "initial rapid transient SCC response to ADH", "setting": "MDCK-C7 cells [1]; 100 nM, n=4, p<0.05 vs controls", "result": "significantly attenuated"},
      {"measurement": "initial rapid transient SCC response to ADH", "setting": "MDCK-C7 cells [1]; 1 μM, n=4, p<0.01 vs controls", "result": "significantly attenuated"},
      {"measurement": "effect on baseline SCC", "setting": "MDCK-C7 cells [1]; -10 to 0 minutes, before ADH, 18 hrs pre-incubation", "result": "no compound-related effect"},
      {"measurement": "CFTR-mediated anion secretion in response to ADH stimulation", "setting": "MDCK-C7 cells [1]; MDCK-C7 cells, summary statement", "result": "decreased"},
      {"measurement": "initial rapid transient response to ADH", "setting": "MDCK-C7 cells [1]; over the concentration range of 1 nM - 1 μM", "result": "inhibited"},
      {"measurement": "cellular resistance of the monolayers", "setting": "MDCK-C7 cells [2]", "result": "< 500", "unit": "ohm cm^2"}
    ]},
    {"molecule": "N=C(N)NC(=O)c1nc(Cl)c(N)nc1N", "note": "[amiloride, amiloride hydrochloride, reference compound]", "values": [
      {"measurement": "later sustained SCC (ion transport) response to ADH", "setting": "MDCK-C7 cells [1]; amiloride 30 μM, apical media, hydrochloride", "result": "only blocks the later sustained SCC response; also recorded: decrease"}
    ]},
    {"molecule": "O=C(O)c1cc([N+](=O)[O-])ccc1NCCCc1ccccc1", "note": "[NPPB, reference compound]", "values": [
      {"measurement": "rapid transient ion transport response to ADH", "setting": "MDCK-C7 cells [1]; 500 μM, added to apical bathing medium, 30 minutes before ADH", "result": "significantly diminish"}
    ]}
  ]
}
